Results from patent US20090176776A1, “SMALL MOLECULE INHIBITORS OF HIV-1 CAPSID ASSEMBLY” (UNIVERSITY OF ALABAMA AT BIRMINGHAM, priority 2005, published 2009).

Legend:
HIV-1NL43 [1] = assay: Anti-HIV assay (single round), p24 production by pNL43-transfected cells (ELISA); assay type: cell-based; conditions: p24 in supernatant of NL43-transfected 293T cells, 72 hours; read-out: p24 50%
Description: (§1) Anti-HIV Assays (Single Round). The inhibitory effect of the compounds on virus production and infectivity were determined by measuring the level of p24 produced in the presence of various concentrations of compounds from HEK-293 cells transiently transfected with pNL43 and by titering the virus on TZM-b1 cells. Briefly, 2.5×10^5 HEK-293 cells/ml were transfected with pNL43 using FuGene 6. Four hours post transfection the cells were plated in 96-well plates containing 100 μl of various concentrations of compounds (0-75 μM or 0-300 μM for mock transfected cells) in triplicate. At 72-hours post transfection virus supernatant was collected and stored at −80° C. until analysis. The level of p24 produced at each compound concentration was determined relative to the level produced in the presence of the DMSO only controls using HIV-1 p24 enzyme-linked immunosorbent assay (ELISA) (Beckman-Coulter). To determine the infectivity of the virus produced TZM-b1 cells were plated at 1×10^5 cells/ml in 100 μL in 96-well plates overnight. The next day, the media was replaced with 75 μL DMEM supplemented with 1% FBS, 1× PSG and 40 μg/ml DEAE Dextran and 25 μL of viral supernatant from the HEK-293 cells was added to each well. Three hours later 100 μL of DMEM with 7% FBS was added to each well. Two days after infection the cells were lysed and the level of luciferase expression was determined using the Bright-Glo assay.
(§2) FIGS. 12-18 show the anti-HIV assays for the examples of chemical compounds used according to the invention. After in-vitro assay, the chemical compounds in FIGS. 12-18 were selected for screening for cell viability and toxicity. Jurkat cells assay was used as screening assay. In Jurkat cells assay, JLTRG-R5 cells were used as Indicator cells and MOLT4 cells as Producer cells of NL43 and BAL virus. 96 chemical compounds were plated at seven different concentration from 75 μM to 0 μM at three-fold serial dilutions in 384 well plate. After five days, GFP expression was read. Cell viability was monitored with Alamar Blue assay. Luc M7 assay was designed to measure inhibitory activity of the chemical compounds to viral replication. After infection of cells with YU2 virus, plate cells in 96-well plate in the presence of six concentration of compounds in DMSO. At day 6, the number of cells in wells were read with Cell Titer Glo kit or by counting the number of cells infected with Bright Glo kit. 293T cells assay was designed to determine the toxicity. 293T cells were transfected with NL43. After four hours, transfected cells were plated in 96-well plate in DMSO and 2 μM Indinavir. 72 hours later, viral supernatant was collected and plated on JC53BL. Luciferase expression was measure after two days and p24 analysis was conducted with 1:1000 and 1:2000 dilutions.

HIV-1NL43 [2] = assay: Anti-HIV assay (single round), infectivity of virus produced, titered on TZM-b1 cells; assay type: cell-based; conditions: virus from NL43-transfected 293T cells, 72 hours; luciferase after two days; read-out: Infectivity 50%
Description: as §1, §2

293T cells = assay: Toxicity in 293T cells; assay type: cell-based, human; parameters: unit not given beside the values
Description: as §1, §2

[3] = MTS score (Table 1; method not described); assay type: cell-based; conditions: for MTS AVG 4 (No Effect): average of the MTS scores at 10, 30 and 100 μM; for MTS 10 μM: score at nominal 10 μM; for MTS 10 μM / MTS 30 μM / MTS 100 μM: 4 = No Effect; for MTS 30 μM: score at nominal 30 μM; for MTS 100 μM: score at nominal 100 μM
[4] = biological target: T1, recombinant HIV-1 capsid protein (CA) (Human immunodeficiency virus type 1 group M subtype B, UniProt P12493); assay: Turbidity based HIV-1 capsid assembly assay; assay type: biochemical; conditions: initial assembly rate by turbidity; twofold dilutions over a 128 fold range; 30 μM CA, 2.25 M NaCl
T1 construct: recombinant HIV-1 capsid protein (CA); made in house
Description: The kinetics can be followed by monitoring the increase of turbidity using a spectrophotometer. The IC50 of the chemical compound tested is determined by titration. As the C-domain inhibits capsid assembly by forming CA-C-domain heterodimers, the effect of added C-terminal domain on the rate of assembly was evaluated by plotting the rate of assembly versus C-terminal domain concentration.
Soluble HIV-1 capsid protein can be triggered to assemble into tubes similar in diameter and morphology to intact cores by dilution into high iconic strength buffer. The kinetics of assembly can be followed by monitoring the increase in turbidity using a spectrophotometer (Lanham et al., J. Virol., 76:6900, 2002). This assembly assay was adapted to a 96-well, microplate format to allow for medium-throughput screening of compounds by measuring turbidity in a Nepeloskan Ascent plate reader (Thermo Electron Corp., UK). A DIVERSet™ library of 10,000 low molecular weight, “drug-like” compounds was purchased from ChemBridge Corp. (San Diego, Calif.). This library was selected for its potential bioavailability and application based on a pharmacophore diversity analysis. The average molecular weight of the compounds is 347 g/mol, the range being 200-596 g/mol. The compounds came plated in 96-well plates and solubilized in DMSO at 5 mgs/mL.
Turbidity based assay. A 1.5 μL aliquot of compound was diluted 90-fold into 50 mM Na2HPO4, […] buffer, pH 8 in an optically clear 96-well plate. The plate containing compounds and salt was read to check for compound solubility and to serve as a background reading for the assay. To initiate the assembly reaction, 15 μL of […] stock (in 50 mM Na2HPO4 pH 8) of recombinant HIV-1 capsid protein (CA), purified as described (Lanman et al., J. Virol., 76:6900, 2002), was added to each well of the 96-well plate using a multi-channel pipettor. […] Furthermore, the halftime of the assembly reaction is ˜5 minutes so reading the plate in thirds prevented loss of initial rate data. Therefore, CA was added to the first 4 lanes, the reactions followed for ten minutes, reading was paused, CA was then added to the next four lanes and the process repeated. Instrument settings are as follows: PMT gain of 500 V, lamp at 10V, and integration time of 60 ms. The data were exported to a custom designed Excel spreadsheet that allowed simultaneous plotting of kinetic curves.
Recombinant CA protein was purified as previously described and stored at 300 μM at −80° C. A turbidity based assembly assay, described above, was adapted to a 96-well, microplate format to allow for medium-throughput screening of compounds in a Nepheloskan Ascent plate reader (Thermo Electron Corp., UK). A 1.5 μL aliquot of compound or DMSO was diluted 90-fold into 50 mM Na2HPO4, 2.25 M NaCl buffer, pH 8 in an optically clear 96-well plate. To initiate the assembly reaction, 15 μL of the 300 μM stock (in 50 mM Na2HPO4 pH 8) of recombinant HIV-1 capsid protein (CA), was added to each well of the 96-well plate using a multi-channel pipettor.

Luc-M7 cells = assay: Cell viability of Luc-M7 cells (Cell-Titer Glo); assay type: cell-based; parameters: unit: μM; conditions: mock-infected Luc-M7 cells, 6 days
Description: (§3) Anti-HIV Assays (Multiple Round). The inhibitory effects of the tested compounds on HIV-1YU2 replication were determined by the level of luciferase expression after 6 days of infection using Bright-Glo assay (Promega). An amount of 1.5×10^4 Luc-M7 (a gift from Ned Landau) cells per ml were infected with HIV-1YU2 at a multiplicity of infection (MOI) of 3. The HIV-1 infected ([…] compound) or mock-infected (0-300 μM compound) Luc-M7 cells were placed in 96-well culture plates (100 μl/well) with 100 μl of various concentrations of the compounds with 20 μg/ml DEAE Dextran in triplicate and incubated at 37° C. under 5% CO2 at 100% humidity. After 6 days, cell viability was quantified by Cell-Titer Glo assay (Promega). […] On day 5 cell viability was determined in the mock-infected cells. FIGS. 12-18 show the anti-HIV assays for the examples of chemical compounds used according to the invention. After in-vitro assay, the chemical compounds in FIGS. 12-18 were selected for screening for cell viability and toxicity. Jurkat cells assay was used as screening assay. […] After five days, GFP expression was read. Cell viability was monitored with Alamar Blue assay. Luc M7 assay was designed to measure inhibitory activity of the chemical compounds to viral replication. After infection of cells with YU2 virus, plate cells in 96-well plate in the presence of six concentration of compounds in DMSO. At day 6, the number of cells in wells were read with Cell Titer Glo kit or by counting the number of cells infected with Bright Glo kit. 293T cells assay was designed to determine the toxicity. 293T cells were transfected with NL43. After four hours, transfected cells were plated in 96-well plate in DMSO and 2 μM Indinavir. 72 hours later, viral supernatant was collected and plated on J[…].

HIV-1YU2 = assay: Anti-HIV assay (multiple round), luciferase expression in Luc-M7 cells; assay type: cell-based; conditions: Luc-M7 cells infected with HIV-1YU2, 6 days, Bright-Glo
Description: as §3

SMILES | IC50 (HIV-1NL43 [1]) [µM] | IC50 (HIV-1NL43 [2]) [µM] | TC50% (293T cells) | MTS AVG 4 (No Effect) [3] | MTS 10 μM [3] | MTS 30 μM [3] | MTS 100 μM [3] | IC50 [4] [µM] | TC50 (Luc-M7 cells) | IC50 (HIV-1YU2) [µM]
COc1ccc(NS(=O)(=O)c2ccc(Br)cc2)cc1OC [Compound 14] | 62.8 | > 75 | 102 | 1.667 | 2 | 1 | 2 | 10 | – | –
Cc1nc2ccccc2n1Cc1ccc(Br)cc1 [Compound 18] | 1.8 | 43.2 | 9.1 | 1.000 | 1 | 1 | 1 | 21 | – | –
O=[N+]([O-])c1c(Cl)cc(O)c2c1C1C=CCC1C(c1ccc(Br)cc1)N2 (centres unmarked) [Compound 25] | 10.4 | 17.7 | 174 | 1.000 | 1 | 1 | 1 | 10 | – | –
O=C(O)C(S)Cc1ccc(Cl)cc1 (centres unmarked) [Compound 47] | 24.6 | 34.2 | 202 | 2.000 | 4 | 1 | 1 | 37 | – | –
CCc1ccc(OCCCCCn2ccnc2)cc1 [Compound 58] | 1.69 | 10 | 5 | 1.333 | 2 | 1 | 1 | 25 | 8.7 | 0.06
CCN(CC)c1ccc(C=Nc2ccc(Sc3ccc([N+](=O)[O-])cc3)cc2)cc1 [Compound 70] | 67.5 | 32.9 | 135 | 3.000 | – | 4 | 2 | 33 | 92.5 | 1.47
Cc1ccc(S(=O)(=O)NN=Cc2cc(Br)cc(Br)c2O)cc1 [Compound 73] | 70 | 32 | 178 | 3.000 | 4 | 3 | 2 | 15 | – | –
